Reference: the OPERA property sets (Mansouri et al. 2018)

Conditions: not given
With `Cc1cc(C)cc(-c2ccccc2)c1` the boiling point was 274 °C and the melting point was 22.5 °C. With `CC(O)CCl` (configuration not stated) the boiling point was 127 °C and the log10 vapour pressure (mmHg) was 0.69. Compound `C[C@]12C=CC(=O)C=C1CC[C@H]1[C@@H]3C[C@@H](O)[C@](O)(C(=O)CO)[C@@]3(C)C[C@H](O)[C@@]12F` has a melting point of 270 °C. For `Cl.NCC(F)(F)F`, the melting point was 195 °C. With `c1ccc(CCCc2ccncc2)cc1` the boiling point was 322 °C. `CCOC(CCl)OCC` showed a boiling point of 157 °C. Work on `CC(CC(C(N)=O)(c1ccccc1)c1ccccc1)N(C)C` (configuration not stated) yielded a melting point of 137 °C. In the case of `CCCCCCCCC(C(=O)O)C(=O)O`, the melting point was 116 °C. In the case of `CC(C)(Oc1ccc(Cl)cc1)C(=O)OCCCOC(=O)C(C)(C)Oc1ccc(Cl)cc1`, the melting point was 52 °C. For `C=C(C)C(=O)OC(C)(C)C`, the ready biodegradability was “not readily biodegradable”. Compound `CCOCCN(Cc1ccc(CN(CCOCC)C(=O)C(Cl)Cl)cc1)C(=O)C(Cl)Cl` has a melting point of 140 °C. Compound `CCc1ccc2cc(O)c(O)cc2c1` has a melting point of 149 °C. `CCC(C)C(C)C(C)(C)C` (configuration not stated) showed a boiling point of 157 °C. `ClC(Cl)=C(Cl)Cl` gave a boiling point of 121 °C, a log10 Henry constant (atm·m³/mol) of -1.75 and a log10 Koa of 3.48. The log10 Koc (L/kg) was 2.4, the log10 vapour pressure (mmHg) was 1.27 and the melting point was -22.3 °C. The ready biodegradability was “not readily biodegradable”. `CCCC(=O)N(CSP(=S)(OC)OC)c1ccccc1Cl` gave a melting point of 42 °C. Compound `OC1c2ccccc2-c2ccccc21` has a melting point of 154 °C. In the case of `C[C@]12CC[C@H]3[C@@H](CCC4=CC(=O)C=C[C@@]43C)[C@@H]1CC[C@H]2O`, the melting point was 165 °C. For `CCCCOC(=O)COC(=O)c1ccccc1C(=O)OCCCC`, the log10 Koc (L/kg) was 3.7 and the ready biodegradability was “readily biodegradable”. In the case of `CN(c1ccccc1)c1ccccc1`, the boiling point was 294 °C, the log10 vapour pressure (mmHg) was -2.51 and the melting point was -7.5 °C. Work on `CCOC=Nc1ccccc1` yielded a boiling point of 214 °C. For `Oc1ccc(Br)cc1`, the log10 Koc (L/kg) was 2.41 and the ready biodegradability was “not readily biodegradable”. In the case of `CN(C)c1cccc(C(=O)O)c1`, the ready biodegradability was “not readily biodegradable”. In the case of `CC(C)=CC1C(C(=O)OCc2cccc(Oc3ccccc3)c2)C1(C)C` (configuration not stated), the log10 vapour pressure (mmHg) was -6.84. With `CC(C)CCBr` the boiling point was 120 °C, the log10 Henry constant (atm·m³/mol) was -1.46 and the log10 vapour pressure (mmHg) was 1.54. For the same compound, the melting point was -112 °C. For `Cc1c[nH]cn1`, the boiling point was 263 °C and the melting point was 56 °C. `FCCF` gave a boiling point of 30.7 °C and a log10 vapour pressure (mmHg) of 2.79. In the case of `c1ccc2c(c1)Sc1ccccc1S2`, the boiling point was 365 °C, the melting point was 159 °C and the ready biodegradability was “not readily biodegradable”. With `OCC(CO)(CO)CBr` the melting point was 76 °C. For `O=C(O)c1cccc(Cl)c1`, the melting point was 158 °C and the ready biodegradability was “readily biodegradable”. For `Cc1cc(O)c2ccccc2c1O`, the melting point was 169 °C. Work on `COc1ccc(C(C)=O)cc1` yielded a boiling point of 258 °C, a log10 vapour pressure (mmHg) of -2.19 and a melting point of 38.5 °C. `C1=CCCCCC1` gave a boiling point of 115 °C and a melting point of -56 °C. `Cc1ccc2c(c1[N+](=O)[O-])C(=O)c1ccccc1C2=O` gave a melting point of 270 °C. `N#CC1CCC1` gave a boiling point of 150 °C. Work on `ClCC1CC1` yielded a boiling point of 88 °C and a melting point of -90.9 °C. For `O=C(O)CCCCCCCCCCBr`, the melting point was 57 °C. `Cc1cccc(O)c1C` gave a boiling point of 217 °C, a log10 Henry constant (atm·m³/mol) of -6.13 and a log10 vapour pressure (mmHg) of -1.05. It also gave a melting point of 72.8 °C. Compound `C=C(C)COC` has a boiling point of 68 °C. Work on `ICCCCCCI` yielded a melting point of 9.5 °C. `CCCCCCCOCCCCCCC` showed a boiling point of 258 °C. `COC(=O)C1(S(=O)(=O)c2ccc([N+](=O)[O-])cc2)CC1` gave a melting point of 127 °C. With `CC(Cl)(Cl)C(Cl)Cl` the boiling point was 153 °C. With `O=C(O)CC1CCCCC1` the boiling point was 245 °C and the melting point was 33 °C. `CCCC=CC(C)C` showed a boiling point of 112 °C and a melting point of -108 °C. `CCCCCCCCCCCCCCCCC(=O)O` gave a boiling point of 364 °C, a log10 vapour pressure (mmHg) of -7.21 and a melting point of 61.3 °C. In the case of `CC(=O)Nc1ccc(C)cc1C`, the melting point was 129 °C. Compound `O=C(NCN1CCOCC1)c1cnccn1` has a melting point of 118 °C. In the case of `COc1cc2c(c(OC)c1OC)-c1ccc(SC)c(=O)cc1[C@@H](NC(C)=O)CC2`, the melting point was 193 °C. In the case of `COc1ccc2c(OC)c3ccoc3nc2c1OC`, the melting point was 177 °C. With `O=C1OC(=O)C2C1C1(Cl)C(Cl)=C(Cl)C2(Cl)C1(Cl)Cl` (configuration not stated) the melting point was 233 °C. Work on `CC(=O)C(=O)O` yielded a log10 Henry constant (atm·m³/mol) of -8.49, a log10 vapour pressure (mmHg) of 0.111 and a melting point of 13.8 °C. For `CC1=C(C(=O)Nc2ccccc2)CCCO1`, the melting point was 110 °C. Compound `CCOC(=O)CCCCCBr` has a melting point of 33 °C. `Cc1ccc(CC(C)C)cc1` showed a boiling point of 196 °C. `CCOc1nc(NC)nc(NC(=O)NS(=O)(=O)c2ccccc2C(=O)OC)n1` gave a log10 Koc (L/kg) of 1.93 and a melting point of 194 °C. Compound `CCN(CC)C(=O)N1CCN(C)CC1` has a melting point of 48 °C. For `COc1cc(N)ccc1C`, the boiling point was 251 °C and the melting point was 56.5 °C. For `NS(=O)(=O)c1cc2c(cc1Cl)NCNS2(=O)=O`, the melting point was 274 °C. Work on `CCC1(CC)COC(=O)NC1=O` yielded a melting point of 97.5 °C. `O=C1OC(c2ccc(O)c3ccccc23)(c2ccc(O)c3ccccc23)c2ccccc21` gave a melting point of 254 °C. In the case of `COc1cc(-c2ccc(N=C=O)c(OC)c2)ccc1N=C=O`, the melting point was 114 °C. With `COc1cc(C[C@H]2c3cc(OC)c(OC)cc3CCN2C)c(Oc2cc3c(cc2OC)-c2c(OC)c(OC)cc4c2[C@H](C3)N(C)CC4)cc1OC` the melting point was 160 °C. In the case of `Nc1cc(C(=O)O)ccc1Cl`, the melting point was 214 °C. Work on `CNC(=O)/C=C(\C)OP(=O)(OC)OC` yielded a log10 Koc (L/kg) of 0, a log10 vapour pressure (mmHg) of -5.66 and a melting point of 55 °C. With `CC(=O)/C(C)=N/O` the boiling point was 186 °C and the melting point was 76.8 °C. Work on `CCCN(CCC)c1ccccc1` yielded a boiling point of 242 °C. With `O=C=Nc1cccc2ccccc12` the boiling point was 269 °C. Work on `CN1c2ccccc2Sc2ccc(CC(=O)O)cc21` yielded a melting point of 144 °C. For `CC(C)(C)OC(=O)C(Cl)(Cl)Cl`, the melting point was 25.5 °C. With `CCCCC[C@H](O)/C=C/[C@@H]1[C@@H](C/C=C\CCCC(=O)O)[C@@H](O)C[C@H]1O` the melting point was 30 °C. Work on `c1ccc(-c2nc3ccccc3s2)cc1` yielded a boiling point of 371 °C and a melting point of 115 °C. `CCC(=O)OC` gave a boiling point of 79.8 °C, a log10 Henry constant (atm·m³/mol) of -3.76 and a log10 vapour pressure (mmHg) of 1.92. For the same compound, the melting point was -87.5 °C. Work on `Nc1c(Br)cc(Br)cc1Br` yielded a boiling point of 300 °C and a melting point of 122 °C. With `CCCCCCc1ccc(N)cc1` the boiling point was 282 °C. `Cc1cn(C)c2ccccc12` gave a boiling point of 258 °C and a melting point of 142 °C. With `C[C@@H](CN1CC(=O)NC(=O)C1)N1CC(=O)NC(=O)C1` the melting point was 238 °C. Work on `C=C[C@](C)(O)CC[C@@H]1[C@@]2(C)CCCC(C)(C)[C@@H]2CC[C@@]1(C)O` yielded a melting point of 97 °C. Compound `CC(=O)c1cc(C)c(C)cc1C` has a boiling point of 246 °C and a melting point of 10.5 °C. Compound `CNC(=O)Oc1cccc2c1OC(C)(C)C2` has a log10 Koc (L/kg) of 1.75, a log10 vapour pressure (mmHg) of -5.31 and a melting point of 151 °C. For `O=C(O)c1cccnc1C(=O)O`, the melting point was 228 °C and the ready biodegradability was “readily biodegradable”. In the case of `CCCC=CC=O`, the log10 Henry constant (atm·m³/mol) was -4.31. In the case of `O=C(O)CCC(=O)c1ccc(-c2ccccc2)cc1`, the melting point was 186 °C. `FC(Cl)C(F)(F)F` (configuration not stated) gave a boiling point of -12 °C and a log10 vapour pressure (mmHg) of 3.46. Work on `Oc1cccc2[nH]ccc12` yielded a melting point of 100 °C. For `Nc1ccn([C@@H]2O[C@H](COP(=O)(O)O)[C@@H](O)[C@@H]2O)c(=O)n1`, the melting point was 233 °C. In the case of `CCC(=O)c1ccccc1`, the boiling point was 218 °C, the log10 vapour pressure (mmHg) was -0.77 and the melting point was 18.6 °C. The ready biodegradability was “readily biodegradable”. In the case of `COP(=O)(OC)C(O)C(Cl)(Cl)Cl` (configuration not stated), the log10 Koc (L/kg) was 1.9, the log10 vapour pressure (mmHg) was -5.11 and the melting point was 77 °C. For the same compound, the ready biodegradability was “not readily biodegradable”. For `CN=Cc1ccccc1`, the boiling point was 185 °C. `CCCC(N)CCC` showed a boiling point of 140 °C. For `C=C(C)CNc1ccc(C(C)C(=O)O)cc1` (configuration not stated), the melting point was 107 °C. Compound `CC(=O)N1CCC(=O)CC1` has a boiling point of 218 °C. Compound `C=CC(O)CO` (configuration not stated) has a boiling point of 196 °C. With `Cc1ccc(O)c(C)c1` the boiling point was 211 °C, the log10 Henry constant (atm·m³/mol) was -6.02 and the log10 vapour pressure (mmHg) was -0.991. For the same compound, the melting point was 24.5 °C and the ready biodegradability was “readily biodegradable”. With `CC(C)(c1cc(Br)c(O)c(Br)c1)c1cc(Br)c(O)c(Br)c1` the melting point was 181 °C and the ready biodegradability was “not readily biodegradable”. For `CCCCCCCCCC#N`, the boiling point was 243 °C and the melting point was -17.9 °C. For `Clc1c(Cl)c(Cl)c(-c2c(Cl)c(Cl)c(Cl)c(Cl)c2Cl)c(Cl)c1Cl`, the ready biodegradability was “not readily biodegradable”. `O=C1c2ccc(O)cc2OC(c2ccc(O)c(O)c2)C1O` (configuration not stated) gave a melting point of 227 °C. With `FC(F)(Br)C(F)(Cl)Br` (configuration not stated) the boiling point was 93 °C. In the case of `CC(Cl)CCl` (configuration not stated), the boiling point was 95.5 °C, the log10 Henry constant (atm·m³/mol) was -2.55 and the log10 Koa was 2.96. The log10 Koc (L/kg) was 1.67, the log10 vapour pressure (mmHg) was 1.73 and the melting point was -100 °C. The ready biodegradability was “not readily biodegradable”. `Clc1ccc(-c2cc(Cl)c(Cl)c(Cl)c2Cl)cc1` showed a melting point of 98 °C.

Same assay, conditions: fish
With `ClC(Cl)=C(Cl)Cl` the log10 BCF was 1.72 and the log10 biotransformation half-life (days) was -0.88. Compound `Oc1ccc(Br)cc1` has a log10 BCF of 1.17. In the case of `Brc1ccc(Oc2cc(Br)c(Br)c(Br)c2)cc1Br`, the log10 BCF was 6.43. `CC(C)(c1cc(Br)c(O)c(Br)c1)c1cc(Br)c(O)c(Br)c1` gave a log10 BCF of 2.43. In the case of `Clc1c(Cl)c(Cl)c(-c2c(Cl)c(Cl)c(Cl)c(Cl)c2Cl)c(Cl)c1Cl`, the log10 BCF was 4.24 and the log10 biotransformation half-life (days) was 2.86. Compound `CC(Cl)CCl` (configuration not stated) has a log10 BCF of 0.85 and a log10 biotransformation half-life (days) of -1.06. In the case of `Clc1ccc(-c2cc(Cl)c(Cl)c(Cl)c2Cl)cc1`, the log10 biotransformation half-life (days) was 2.36.
